The text below walks through data of patent US9284333B2, “Fused pyrroledicarboxamides and their use as pharmaceuticals” (SANOFI, priority 2012, dated 2016).

Each structure is given as a SMILES string.

Sequence of Human TASK-1 channels (O14649 whole entry, the tested form may be a part): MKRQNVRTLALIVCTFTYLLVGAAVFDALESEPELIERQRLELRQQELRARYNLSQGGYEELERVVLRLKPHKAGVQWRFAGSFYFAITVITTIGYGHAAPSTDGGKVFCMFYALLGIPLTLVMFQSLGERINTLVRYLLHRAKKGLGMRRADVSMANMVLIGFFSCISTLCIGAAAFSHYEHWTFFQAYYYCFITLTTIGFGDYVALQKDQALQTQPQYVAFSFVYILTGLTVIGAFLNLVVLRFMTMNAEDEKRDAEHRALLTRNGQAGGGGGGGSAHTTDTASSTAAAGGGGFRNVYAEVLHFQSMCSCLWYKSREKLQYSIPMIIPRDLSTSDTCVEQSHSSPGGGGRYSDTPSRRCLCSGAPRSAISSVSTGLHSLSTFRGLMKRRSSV

This experiment concerns the target Human TASK-1 channels (Homo sapiens (Human), UniProt O14649). Briefly: Determination of the activity on the TASK-1 channel in Xenopus oocytes (two-microelectrode voltage clamp). The experiment is classed as cell-based. Conditions: human TASK-1 expressed in Xenopus oocytes, room temperature; read-out: IC50 value for TASK-1 inhibition. The gist of the method: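 Xenopus oocytes were injected with human TASK-1 cRNA and recorded two days later by two-microelectrode voltage clamp, holding at −90 mV with 500 ms steps to 40 mV. Superfusion used ND96, pH 7.4, at room temperature, with rising compound concentrations; percentage inhibition of control current was fitted to a dose-response curve for IC50.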
With `CC[C@@H](NC(=O)c1cc(C(=O)N2CCCCCC2)n2c1CCCC2)c1ccccc1` [16mr, 3-(Azepane-1-carbonyl)-5,6,7,8-tetrahydro-indolizine-1-carboxylic acid ((R)-1-phenyl-propyl)-amide], the IC50 amounted to 200 nM.

`CC[C@@H](NC(=O)c1cc(C(=O)NCc2cnccn2)n2c1COCC2)c1ccccc1` [16gt, 3,4-Dihydro-1H-pyrrolo[2,1-c][1,4]oxazine-6,8-dicarboxylic acid 8-[((R)-1-phenyl-propyl)-amide] 6-[(pyrazin-2-ylmethyl)-amide]]: the half-maximal inhibitory concentration (IC50) was found to be 310 nM.

Take `CC[C@@H](NC(=O)c1cc(C(=O)N2CCC[C@@H]2C)n2c1COCC2)c1ccc(F)cc1` [16az, 6-((S)-2-Methyl-pyrrolidine-1-carbonyl)-3,4-dihydro-1H-pyrrolo[2,1-c][1,4]oxazine-8-carboxylic acid [(R)-1-(4-fluoro-phenyl)-propyl]-amide]: the IC50 was determined as 120 nM.

Regarding `CC[C@@H](NC(=O)c1cc(C(=O)N(C)[C@@H](C)C(=O)OC(C)C)n2c1COCC2)c1ccccc1` [16ja, (S)-2-{Methyl-[8-((R)-1-phenyl-propylcarbamoyl)-3,4-dihydro-1H-pyrrolo[2,1-c][1,4]oxazine-6-carbonyl]-amino}-propionic acid isopropyl ester], the IC50 is 100 nM.

Turning to `CC[C@@H](NC(=O)c1cc(C(=O)N(C)Cc2ccccn2)n2c1COCC2)c1ccccc1` [16gw, 3,4-Dihydro-1H-pyrrolo[2,1-c][1,4]oxazine-6,8--dicarboxylic acid 6-(methyl-pyridin-2-ylmethyl-amide) 8-[((R)-1-phenyl-propyl)-amide]], the IC50 amounted to 780 nM.

`CC[C@@H](NC(=O)c1cc(C(=O)Nc2c(C)noc2C)c2n1CCOC2)c1ccccc1` [16jk, 3,4-Dihydro-1H-pyrrolo[2,1-c][1,4]oxazine-6,8-dicarboxylic acid 8-[(3,5-dimethyl-isoxazol-4-yl)-amide] 6-[((R)-1-phenyl-propyl)-amide]]: the IC50 is 620 nM.

Consider `CC[C@H](NC(=O)c1cc(C(=O)N[C@H](C)c2ccc(F)cc2)c2n1CCOC2)c1ncccn1` [16nw, 3,4-Dihydro-1H-pyrrolo[2,1-c][1,4]oxazine-6,8-dicarboxylic acid 8-{[(R)-1-(4-fluoro-phenyl)-ethyl]-amide} 6-[((S)-1-pyrimidin-2-yl-propyl)-amide]], for which the IC50 is 200 nM.

Turning to `CC[C@@H](NC(=O)c1cc(C(=O)NCc2cccc(C(=O)OC)c2)n2c1COCC2)c1ccccc1` [16iq, 3-({[8-((R)-1-Phenyl-propylcarbamoyl)-3,4-dihydro-1H-pyrrolo[2,1-c][1,4]oxazine-6-carbonyl]-amino}-methyl)-benzoic acid methyl ester], the IC50 is 330 nM.

On to `CC[C@@H](NC(=O)c1cc(C(=O)N[C@@H](C)c2ccc(F)cc2)n2c1CCCC2)c1ccccc1` [16lt, 5,6,7,8-Tetrahydro-indolizine-1,3-dicarboxylic acid 3-{[(S)-1-(4-fluoro-phenyl)-ethyl]-amide} 1-[((R)-1-phenyl-propyl)-amide]], for which the IC50 was determined as 58 nM.

On to `CC[C@@H](NC(=O)c1cc(C(=O)N2CCC[C@@H]2C)n2c1COCC2)c1c(F)cc(C(F)(F)F)cc1F` [16cl, 6-((S)-2-Methyl-pyrrolidine-1-carbonyl)-3,4-dihydro-1H-pyrrolo[2,1-c][1,4]oxazine-8-carboxylic acid [(R)-1-(2,6-difluoro-4-trifluoromethyl-phenyl)-propyl]-amide], for which the IC50 came to 50 nM.

Turning to `CC[C@@H](NC(=O)c1cc(C(=O)NCc2cccc(C#N)c2)n2c1COCC2)c1ccccc1` [16gs, 3,4-Dihydro-1H-pyrrolo[2,1-c][1,4]oxazine-6,8-dicarboxylic acid 6-(3-cyano-benzylamide) 8-[((R)-1-phenyl-propyl)-amide]], the concentration for half-maximal inhibition (IC50) was found to be 250 nM.

Turning to `CC(C)[C@@H](NC(=O)c1cc(C(=O)NCc2cnccn2)c2n1CCOC2)c1ccc(F)cc1` [16lo, 3,4-Dihydro-1H-pyrrolo[2,1-c][1,4]oxazine-6,8-dicarboxylic acid 6-{[(R)-1-(4-fluoro-phenyl)-2-methyl-propyl]-amide} 8-[(pyrazin-2-ylmethyl)-amide]], the IC50 stood at 420 nM.

Consider `CC[C@@H](NC(=O)c1cc(C(=O)N[C@H](C)c2ccc(F)cc2)n2c1COCC2)c1cnc(OC)cn1` [16dw, 3,4-Dihydro-1H-pyrrolo[2,1-c][1,4]oxazine-6,8-dicarboxylic acid 6-{[(R)-1-(4-fluoro-phenyl)-ethyl]-amide} 8-{[(R)-1-(5-methoxy-pyrazin-2-yl)-propyl]-amide}], for which the IC50 was determined as 48 nM.

Turning to `CC[C@@H](NC(=O)c1cc(C(=O)N[C@H](C)c2ccc(F)cc2)n2c1CSCC2)c1ccccc1` [16la, 3,4-Dihydro-1H-pyrrolo[2,1-c][1,4]thiazine-6,8-dicarboxylic acid 6-{[(R)-1-(4-fluoro-phenyl)-ethyl]-amide} 8-[((R)-1-phenyl-propyl)-amide]], the IC50 was found to be 150 nM.

Regarding `CC[C@@H](NC(=O)c1cc(C(=O)N[C@H](CC)c2ncccn2)c2n1CCOC2)c1ccccc1` [16kd, 3,4-Dihydro-1H-pyrrolo[2,1-c][1,4]oxazine-6,8-dicarboxylic acid 6-[((R)-1-phenyl-propyl)-amide] 8-[((R)-1-pyrimidin-2-yl-propyl)-amide]], the IC50 worked out at 140 nM.

In the case of `CC[C@@H](NC(=O)c1cc(C(=O)N2CCOC[C@@H]2C)c2n1CCOC2)c1ccccc1` [16kh, 8-((S)-3-Methyl-morpholine-4-carbonyl)-3,4-dihydro-1H-pyrrolo[2,1-c][1,4]oxazine-6-carboxylic acid ((R)-1-phenyl-propyl)-amide], the concentration for half-maximal inhibition (IC50) was found to be 990 nM.

On to `CC[C@@H](NC(=O)c1cc(C(=O)Nc2c(C)noc2C)n2c1COCC2)c1ccccc1` [16hg, 3,4-Dihydro-1H-pyrrolo[2,1-c][1,4]oxazine-6,8-dicarboxylic acid 6-[(3,5-dimethyl-isoxazol-4-yl)-amide] 8-[((R)-1-phenyl-propyl)-amide]], for which the IC50 was determined as 600 nM.

As for `CC[C@@H](NC(=O)c1cc(C(=O)NCc2cccc(S(C)(=O)=O)c2)n2c1COCC2)c1ccccc1` [16gv, 3,4-Dihydro-1H-pyrrolo[2,1-c][1,4]oxazine-6,8-dicarboxylic acid 6-(3-methanesulfonyl-benzylamide) 8-[((R)-1-phenyl-propyl)-amide]], the IC50 was 1310 nM.

In the case of `CC[C@@H](NC(=O)c1cc(C(=O)N2CCCC2C(C)(C)C)n2c1COCC2)c1ccccc1` (stereo partly drawn) [16ex, 6-(2-tert-Butyl-pyrrolidine-1-carbonyl)-3,4-dihydro-1H-pyrrolo[2,1-c][1,4]oxazine-8-carboxylic acid ((R)-1-phenyl-propyl)-amide], the IC50 amounted to 180 nM.

`CC[C@@H](NC(=O)c1cc(C(=O)N2CCC[C@@H]2C)n2c1COCC2)c1ccc(OC(F)(F)F)cc1` [16aw, 6-((S)-Methyl-pyrrolidine-1-carbonyl)3,4-dihydro-1H-pyrrolo[2,1-c][1,4]oxazine-8-carboxylic acid [(R)-1-(4-trifluoromethoxy-phenyl)-propyl]-amide]: the IC50 turned out to be 280 nM.

As to `CC[C@@H](NC(=O)c1cc(C(=O)N[C@H](C)c2ccc(F)cc2)c2n1CCOC2)c1ncccn1` [16nv, 3,4-Dihydro-1H-pyrrolo[2,1-c][1,4]oxazine-6,8-dicarboxylic acid 8-{[(R)-1-(4-fluoro-phenyl)-ethyl]-amide} 6-[((R)-1-pyrimidin-2-yl-propyl)-amide]], the 50% inhibitory concentration (IC50) was 170 nM.

As a reminder, the IC50 is the concentration needed to halve the response being measured.
